{"source": "paper PMC4033654", "about": "(Journal of Medicinal Chemistry, 2014)", "key": {"[1]": {"test_system": "all human cancer cell lines successfully tested", "test": "NCI60 anti-proliferative screen, all cell lines", "assay_type": "cell-based"}, "ABCG2": {"test_system": "ABCG2", "settings": "cited from earlier work"}, "MDR-1": {"test_system": "MDR-1", "settings": "cited from earlier work"}, "recombinant TDP1": {"biological_target": "recombinant TDP1 (Homo sapiens, UniProt Q9NUW8)", "sequence (Q9NUW8 whole entry)": "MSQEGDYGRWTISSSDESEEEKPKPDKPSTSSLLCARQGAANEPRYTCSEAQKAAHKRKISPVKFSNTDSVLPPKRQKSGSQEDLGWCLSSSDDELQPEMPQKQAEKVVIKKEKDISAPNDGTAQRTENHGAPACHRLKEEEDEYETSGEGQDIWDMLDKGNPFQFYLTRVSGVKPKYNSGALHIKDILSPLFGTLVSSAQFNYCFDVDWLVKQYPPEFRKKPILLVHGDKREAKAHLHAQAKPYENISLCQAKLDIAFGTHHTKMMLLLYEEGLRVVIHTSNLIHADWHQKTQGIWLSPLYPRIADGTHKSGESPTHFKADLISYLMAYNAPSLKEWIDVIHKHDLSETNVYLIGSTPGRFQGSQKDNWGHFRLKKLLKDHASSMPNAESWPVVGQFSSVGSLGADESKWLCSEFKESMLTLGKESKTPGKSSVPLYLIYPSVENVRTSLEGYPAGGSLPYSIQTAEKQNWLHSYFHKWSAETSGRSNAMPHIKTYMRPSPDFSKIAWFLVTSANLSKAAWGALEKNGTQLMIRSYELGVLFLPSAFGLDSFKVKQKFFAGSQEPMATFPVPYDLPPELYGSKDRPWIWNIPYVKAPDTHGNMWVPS", "test": "Gel-based assay measuring the inhibition of recombinant TDP1", "assay_type": "biochemical"}, "MCF-7": {"test_system": "MCF-7", "settings": "read-out: cytotoxicity GI50, breast MCF-7; cited from earlier work"}, "TDP1": {"test_system": "TDP1", "settings": "cited from earlier work"}, "HCT-116": {"test_system": "HCT-116", "settings": "read-out: cytotoxicity GI50, colon HCT-116; cited from earlier work"}, "DU-145": {"test_system": "DU-145", "settings": "read-out: cytotoxicity GI50, prostate DU-145; cited from earlier work"}, "UACC-62": {"test_system": "UACC-62", "settings": "read-out: cytotoxicity GI50, melanoma UACC-62; cited from earlier work"}, "HOP-62": {"test_system": "HOP-62", "settings": "read-out: cytotoxicity GI50, lung HOP-62; cited from earlier work"}, "SN12C": {"test_system": "SN12C", "settings": "read-out: cytotoxicity GI50, renal SN12C; cited from earlier work"}, "OVCAR-3": {"test_system": "OVCAR-3", "settings": "read-out: cytotoxicity GI50, ovarian OVCAR-3; cited from earlier work"}}, "data": [{"compound": "COc1cc2c(=O)n(CCCN3CCOCC3)c3c(c2cc1OCCCN1CCCCC1)C(=O)c1cc2c(cc1-3)OCO2", "note": "[compound 22, 3-Methoxy-6-(3-morpholinopropyl)-2-(3-(piperidin-1-yl)propoxy)-5H-[1,3]dioxolo[4′,5′:5,6]indeno[1,2-c]isoquinoline-5,12(6H)-dione]", "values": [{"measurement": "GI50 against various cell lines", "setting": "[1]", "value": "low micromolar"}]}, {"compound": "COc1cc2c3c(n(CCCN4CCOCC4)c(=O)c2cc1OC)-c1cc2c(cc1C3=O)OCO2", "note": "[Indotecan (6), indotecan]", "values": [{"measurement": "substrate for the ABCG2 efflux pump", "setting": "ABCG2", "value": "not a substrate"}, {"measurement": "substrate for the MDR-1 efflux pump", "setting": "MDR-1", "value": "not a substrate"}]}, {"compound": "COc1cc2c(=O)n(CCCN3CCOCC3)c3c(c2cc1OCCCN1CCOCC1)C(=O)c1cc2c(cc1-3)OCO2", "note": "[compound 20, 3-Methoxy-2-(3-morpholinopropoxy)-6-(3-morpholinopropyl)-5H-[1,3]dioxolo[4′,5′:5,6]indeno[1,2-c]isoquinoline-5,12(6H)-dione]", "values": [{"measurement": "GI50 against various cell lines", "setting": "[1]", "value": "submicromolar"}, {"measurement": "TDP1 inhibitory activity", "setting": "recombinant TDP1", "value": "no TDP1 inhibitory activity"}]}, {"compound": "COc1cc2c(=O)n(CCCN3CCOCC3)c3c(c2cc1OCCCN)C(=O)c1cc2c(cc1-3)OCO2.Cl", "note": "[compound 17, 2-(3-Aminopropoxy)-3-methoxy-6-(3-morpholinopropyl)-5H-[1,3]dioxolo[4′,5′:5,6]indeno[1,2-c]isoquinoline-5,12(6H)-dione]", "values": [{"measurement": "GI50 against various cell lines", "setting": "[1]", "value": "submicromolar"}]}, {"compound": "COc1cc2c(=O)n(CCCN3CCOCC3)c3c(c2cc1O)C(=O)c1cc2c(cc1-3)OCO2", "note": "[compound 13]", "values": [{"measurement": "GI50", "setting": "MCF-7", "value": 100, "unit": "nM"}]}, {"compound": "COc1cc2c3c(n(CCCn4ccnc4)c(=O)c2cc1OC)-c1cc2c(cc1C3=O)OCO2", "note": "[indimitecan (7), indimitecan]", "values": [{"measurement": "substrate for the ABCG2 efflux pump", "setting": "ABCG2", "value": "less affected than the camptothecins"}, {"measurement": "substrate for the MDR-1 efflux pump", "setting": "MDR-1", "value": "less affected than the camptothecins"}]}, {"compound": "COc1cc2c(=O)n(CCCN3CCOCC3)c3c(c2cc1OCCCN1CCN(C)CC1)C(=O)c1cc2c(cc1-3)OCO2", "note": "[compound 21, 3-Methoxy-2-(3-(4-methylpiperazin-1-yl)propoxy)-6-(3-morpholinopropyl)-5H-[1,3]dioxolo[4′,5′:5,6]indeno[1,2-c]isoquinoline-5,12(6H)-dione]", "values": [{"measurement": "TDP1 inhibitory activity", "setting": "recombinant TDP1", "value": "no TDP1 inhibitory activity"}]}, {"compound": "COC(=O)COc1cc2c3c(n(CCCN4CCOCC4)c(=O)c2cc1OC)-c1cc2c(cc1C3=O)OCO2", "note": "[compound 24, Methyl 2-((3-Methoxy-6-(3-morpholinopropyl)-5,12-dioxo-6,12-dihydro-5H-[1,3]dioxolo[4′,5′:5,6]indeno[1,2-c]isoquinolin-2-yl)oxy)acetate]", "values": [{"measurement": "GI50 against various cell lines", "setting": "[1]", "value": "low micromolar"}]}, {"compound": "N=C(N)c1ccc(-c2ccc(-c3ccc(C(=N)N)cc3)o2)cc1", "note": "[Furamidine (8), Furamidine]", "values": [{"measurement": "TDP1 inhibitor potency", "setting": "TDP1", "value": "micromolar-range"}]}, {"compound": "C=CCOc1cc2c3c(n(CCCN4CCOCC4)c(=O)c2cc1OC)-c1cc2c(cc1C3=O)OCO2", "note": "[compound 15, 2-(Allyloxy)-3-methoxy-6-(3-morpholinopropyl)-5H-[1,3]dioxolo[4′,5′:5,6]indeno [1,2-c]isoquinoline-5,12(6H)-dione]", "values": [{"measurement": "GI50 against various cell lines", "setting": "[1]", "value": "submicromolar"}, {"measurement": "TDP1 inhibitory activity", "setting": "recombinant TDP1", "value": "no detectable TDP1 inhibitory activity"}]}, {"compound": "COc1cc2c3c(n(CCCNCCO)c(=O)c2cc1OC)-c1cc2c(cc1C3=O)OCO2", "note": "[compound 5]", "values": [{"measurement": "GI50", "setting": "MCF-7", "value": "< 10", "unit": "nM"}, {"measurement": "GI50", "setting": "HCT-116", "value": 100, "unit": "nM"}, {"measurement": "GI50", "setting": "DU-145", "value": "< 10", "unit": "nM"}, {"measurement": "GI50", "setting": "UACC-62", "value": 30, "unit": "nM"}, {"measurement": "GI50", "setting": "HOP-62", "value": 20, "unit": "nM"}, {"measurement": "GI50", "setting": "SN12C", "value": "< 10", "unit": "nM"}, {"measurement": "GI50", "setting": "OVCAR-3", "value": 500, "unit": "nM"}]}]}
